Consider 13 molecules from patent US20060247249A1 (priority 2005, published 2006).

Structures can show the parent of a compound that is named as a salt.

For orientation: Ki means a dissociation constant, usually derived from enzyme kinetics or from competition with a known ligand.

The target of one test is T1, aorta (α1D) (Rattus norvegicus, UniProt P23944).
T1 construct: Isolated tissues were mounted in organ bath containing Krebs Henseleit buffer; from tissue; host or cells: isolated rat aorta (male Wistar)
T1 sequence (P23944 1-561): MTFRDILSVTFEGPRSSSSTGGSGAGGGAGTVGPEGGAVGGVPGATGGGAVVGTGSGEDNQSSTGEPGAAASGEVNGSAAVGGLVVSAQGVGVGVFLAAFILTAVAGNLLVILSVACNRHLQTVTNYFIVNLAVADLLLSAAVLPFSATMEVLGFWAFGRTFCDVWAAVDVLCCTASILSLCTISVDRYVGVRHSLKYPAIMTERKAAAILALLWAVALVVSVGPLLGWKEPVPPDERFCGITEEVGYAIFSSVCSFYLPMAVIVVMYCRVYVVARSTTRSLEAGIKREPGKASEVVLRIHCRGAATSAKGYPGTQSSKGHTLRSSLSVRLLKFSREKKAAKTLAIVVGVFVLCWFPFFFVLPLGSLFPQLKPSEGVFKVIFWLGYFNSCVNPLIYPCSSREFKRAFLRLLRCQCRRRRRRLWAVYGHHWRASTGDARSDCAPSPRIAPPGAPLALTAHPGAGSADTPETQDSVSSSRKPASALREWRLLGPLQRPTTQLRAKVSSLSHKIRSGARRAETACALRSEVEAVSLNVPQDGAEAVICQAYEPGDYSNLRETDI
The experiment in a line: In vitro functional study, isolated rat aorta, antagonism of norepinephrine contraction. It is filed as biochemical. As to conditions: compound at 0.1, 1 and 10 μM. The source says: (§1) In order to study selectivity of action of these compounds towards different α-adrenoceptor subtypes, the ability of these compounds to antagonise aorta (α1D), prostate (α1A) and spleen (α1B) was studied. Aorta, prostrate and spleen tissues were isolated from urethane anaesthetized (1.5 g/kg) male wister rats. Isolated tissues were mounted in organ bath containing Krebs Henseleit buffer of the following composition (mM): NaCl 118; KCl 4.7; CaCl2 2.5; MgSO4 7H2O 1.2; NaHCO3 25; KH2PO4 1.2; glucose 11.5. Buffer was maintained at 37° C. and aereated with a mixture of 95% O2 and 5% CO2. A resting tension of 2 g (aorta) or 1 g (spleen and prostate) was applied to tissues. Contractile response was monitored using a force displacement transducer and recorded on chart recorders. Tissues were allowed to equilibrate for 2 hours. At the end of equilibration period, concentration response curves to norepinephrine (aorta) and phenylepinephrine (spleen and prostate) were obtained in the absence and presence of tested compound (at concentration of 0.1, 1 and 10 μM). Antagonist affinity was calculated and expressed as pKB values in Table II.

The target of a further test is T2, prostate (α1A) (Rattus norvegicus, UniProt P43140).
T2 construct: from tissue; host or cells: isolated rat prostate (male Wistar)
T2 sequence (P43140 1-466): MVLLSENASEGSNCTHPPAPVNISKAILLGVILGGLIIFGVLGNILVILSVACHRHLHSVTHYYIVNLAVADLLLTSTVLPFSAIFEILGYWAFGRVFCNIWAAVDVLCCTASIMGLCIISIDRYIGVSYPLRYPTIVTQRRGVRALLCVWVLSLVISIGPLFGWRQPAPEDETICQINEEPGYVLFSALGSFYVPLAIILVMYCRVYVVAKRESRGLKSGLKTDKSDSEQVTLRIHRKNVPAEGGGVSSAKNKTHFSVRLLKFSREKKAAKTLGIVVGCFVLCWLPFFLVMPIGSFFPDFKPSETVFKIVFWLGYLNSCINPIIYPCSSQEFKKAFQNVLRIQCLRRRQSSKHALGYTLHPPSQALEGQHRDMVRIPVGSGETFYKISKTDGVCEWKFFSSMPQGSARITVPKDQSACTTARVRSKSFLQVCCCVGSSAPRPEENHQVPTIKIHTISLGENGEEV
The experiment in a line: In vitro functional study, isolated rat prostate, antagonism of phenylepinephrine contraction. It is filed as biochemical.
Text: as §1

The next test addresses T3, α1A adrenoceptor (Rattus norvegicus, UniProt P43140).
T3 construct: from tissue; host or cells: rat submaxillary gland membranes
T3 sequence (P43140 1-466): T2 sequence (P43140 1-466)
The experiment in a line: Radioligand binding, [3H] prazosin displacement, rat submaxillary membranes. As to conditions: for Ki: [3H] prazosin displacement, rat submaxillary membranes, read-out: Affinity for α1A (Rat Submaxillary), Ki; for α1B/α1A: ratio of binding affinities, rat liver vs rat submaxillary. How it is done:
(§2) Receptor binding assays were performed using native α-adrenoceptors. The affinity of different compounds for α1A and α1B adrenoceptor subtypes was evaluated by studying their ability to displace specific [^3H] prazosin binding from the membranes of rat submaxillary and liver respectively (Michel et al, Br J. Pharmacol.; 1989; 98:883). The binding assays were performed according to U'Prichard et al. (Eur J Pharmacol., 1978; 50:87) with minor modifications.
(§3) Submaxillary glands were isolated immediately after sacrifice. The liver was perfused with buffer (Tris HCl 50 mM, NaCl 100 mM, 10 mM EDTA pH 7.4). The tissues were homogenised in 10 volumes of buffer (Tris HCl 50 mM, NaCl 100 mM, 10 mM EDTA pH 7.4). The homogenate was filtered through two layers of wet gauge and filtrate was centrifuged at 500 g for 10 min. The supernatant was subsequently centrifuged at 40,000 g for 45 min. The pellet thus obtained was resuspended in the same volume of assay buffer (Tris HCl 50 mM, 5 mM EDTA pH 7.4) and were stored at −70° C. until the time of assay.
(§4) The membrane homogenates (150-250 μg protein) were incubated in 250 μl of assay buffer (Tris HCl 50 mM, EDTA 5 mM, pH 7.4) at 24-25° C. for 1 hour. Non specific binding was determined in the presence of 300 nM prazosin. The incubation was terminated by vacuum filtration over GF/B fibre filters. The filters were then washed with ice cold 50 mM Tris HCl buffer (pH 7.4). The filtermats were dried and bound radioacivity retained on filters was counted. The IC50 and Kd were estimated by using the non linear curve fitting program using G Pad Prism software. The value of inhibition constant Ki was calculated from competitive binding studies by using Cheng & Prusoff equation (Cheng & Prusoff, Biochem Pharmacol, 1973,22: 3099), Ki=IC50/(1+L/Kd) where L is the concentration of [^3H] prazosin used in the particular experiment (Table I).

A further test has as its target T4, α1B adrenoceptor (Rattus norvegicus, UniProt P15823).
T4 construct: from tissue; host or cells: rat liver membranes
T4 sequence (P15823 1-515): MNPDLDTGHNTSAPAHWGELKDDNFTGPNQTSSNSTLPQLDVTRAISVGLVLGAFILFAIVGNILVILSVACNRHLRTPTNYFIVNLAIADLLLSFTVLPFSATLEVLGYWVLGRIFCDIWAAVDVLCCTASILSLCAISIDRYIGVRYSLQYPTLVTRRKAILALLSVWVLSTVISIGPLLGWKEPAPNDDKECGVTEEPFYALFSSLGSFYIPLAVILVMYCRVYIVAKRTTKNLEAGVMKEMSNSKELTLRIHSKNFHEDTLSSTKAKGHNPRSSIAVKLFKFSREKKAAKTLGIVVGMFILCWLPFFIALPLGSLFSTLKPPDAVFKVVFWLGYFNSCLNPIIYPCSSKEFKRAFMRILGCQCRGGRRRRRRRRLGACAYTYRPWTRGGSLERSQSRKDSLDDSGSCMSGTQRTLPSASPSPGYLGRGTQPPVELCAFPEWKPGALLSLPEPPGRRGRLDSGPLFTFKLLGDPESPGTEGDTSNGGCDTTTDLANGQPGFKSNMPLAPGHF
Kind of test: Radioligand binding, [3H] prazosin displacement, rat liver membranes. As to conditions: read-out: Affinity for α1B (Rat Liver), Ki. On the procedure:
as §2, §3, §4

The target of another test is T5, spleen (α1B) (Rattus norvegicus, UniProt P15823).
T5 construct: from tissue; host or cells: isolated rat spleen (male Wistar)
T5 sequence (P15823 1-515): T4 sequence (P15823 1-515)
The experiment in a line: In vitro functional study, isolated rat spleen, antagonism of phenylepinephrine contraction. It counts as biochemical. Particulars: compound at 0.1, 1 and 10 μM.
Text: as §1

The target of the next test is α1-adrenoceptor. Particulars: background statement; cited from earlier work.

As for “1-Carboxycyclohex-4-ene-2-[N-{3-(2-ethoxyphenyl)piperazin-1-yl}propyl]carboxamide [Compound No. 1]”, the “α1D (pKB)” value on aorta (α1D) was 7.24. In addition, the “Selectivity α1D/α1A” value on prostate (α1A) (functional assays, aorta vs prostate) is reported as 9.5. Besides, on prostate (α1A) (functional assays, spleen vs prostate), the “Selectivity α1B/α1A” value is 1.15. Further, the “α1A (pKB)” value at prostate (α1A) (rat prostate, phenylepinephrine, compound at 0.1, 1 and 10 μM) was found to be 8.22. On α1A adrenoceptor, the inhibitory constant (Ki) stood at 20 nM and the α1B/α1A is recorded as greater than 50. For the same molecule, the Ki on α1B adrenoceptor was greater than 1000 nM. The “α1B (pKB)” value at spleen (α1B) came to 8.16.
`COc1ccccc1N1CCN(CC(O)CNC(=O)CCCC(=O)O)CC1` (centres unmarked) [Compound No. 12]: on α1A adrenoceptor, the inhibition constant Ki was greater than 1000 nM and the α1B/α1A came to 1. Besides, the inhibition constant Ki at α1B adrenoceptor is greater than 10000 nM.
For `CC(C)Oc1ccccc1N1CCN(CCCNC(=O)CCCC(=O)O)CC1` the same measures were 777 nM, 3 and 2100 nM.
For the molecule `COc1cc2nc(N3CCN(C(=O)c4ccco4)CC3)nc(N)c2cc1OC` [prazosin], at α1-adrenoceptor, the “α1-adrenergic blocking activity (pKi)” value is greater than 8.
On to `COC(=O)CCCC(=O)NCCCN1CCN(c2ccccc2OC)CC1` [hydrochloride], for which, at α1A adrenoceptor, the inhibition constant (Ki) was 139 nM and the α1B/α1A is recorded as greater than 7. The inhibition constant (Ki) on α1B adrenoceptor was greater than 1000 nM.
For `CC(C)Oc1ccccc1N1CCN(CC(O)CNC(=O)C2CC=CCC2C(=O)O)CC1` (centres unmarked) [Compound No. 5, 1-Carboxy cyclohex-4-ene-2-[N-{3-(2-isopropoxyphenyl)piperazin-1-yl}-2-hydroxypropyl]carboxamide] the same measures were 21 nM, 84 and 1760 nM.
Regarding “1-Carboxymethylcyclohex-4-ene-2-[N-{3-(2-isopropoxyphenyl)piperazin-1-yl}-propyl]carboxamide hydrochloride [Compound No. 11]”, the inhibition constant (Ki) was 3.15 nM at α1A adrenoceptor and 99 nM on α1B adrenoceptor. Besides, the α1B/α1A on α1A adrenoceptor is given as 31.
The corresponding values for `O=C(O)C1CC=CCC1C(=O)NCCCN1CCN(c2ccccc2O)CC1` (centres unmarked) [Compound No. 8, 1-Carboxy cyclohex-4-ene-2-[N-{3-(2-hydroxyphenyl)piperazin-1-yl}propyl]carboxamide] are 593 nM, 5080 nM and 9.
For `O=C(O)CCCC(=O)NCCCN1CCN(c2ccccc2O)CC1` [Compound No. 7, 5-[N-{3-(2-hydroxyphenyl)piperazin-1-yl}]-1-aminopropyl-5-oxo-pentan-1-oic acid] the same measures were 12600 nM, 13000 nM and 1.
With “1-Carboxy cyclohex-4-ene-2-[N-{3-(2-ethoxyphenyl)piperazin-1yl}-2-hydroxyphenyl]carboxamide [Compound No. 6]”, at α1A adrenoceptor, the Ki stood at 398 nM and the α1B/α1A turned out to be 3. Further, the inhibition constant (Ki) on α1B adrenoceptor came out at 1240 nM.
As to `COc1ccccc1N1CCN(CC(O)CNC(=O)C2CC=CCC2C(=O)O)CC1` (centres unmarked) [Compound No. 3], the Ki at α1A adrenoceptor and on α1B adrenoceptor was greater than 1000 nM in each case.
For `CC(C)Oc1ccccc1N1CCN(CCCNC(=O)C2CC=CCC2C(=O)O)CC1` (centres unmarked) [Compound No. 2, 1-Carboxy cyclohex-4-ene-2-[N-{3-(2-isopropoxyphenyl)piperazin-1-yl}propyl]carboxamide], on α1A adrenoceptor, the Ki turned out to be 19 nM and the α1B/α1A is greater than 53. Moreover, the Ki on α1B adrenoceptor was greater than 1000 nM.
The corresponding values for `O=C(O)C1CC=CCC1C(=O)NCC(O)CN1CCN(c2ccccc2O)CC1` (centres unmarked) [Compound No. 4] are 1890 nM, 5 and 9740 nM.
